Results published in EP4011367A1, “COMPOUNDS FOR USE IN THE TREATMENT OF COVID-19” (priority 2020, dated 2022).
Structures can show the parent of a compound that is named as a salt. Where two headings read alike, the source gives them in different places.

Target: T1, SARS-CoV-2 3CL-Pro (Severe acute respiratory syndrome coronavirus 2, UniProt P0DTD1)
T1 construct: SARS-CoV-2 main protease (3CL-Pro), also termed M-Pro
Test: biochemical
Conditions: for inhibition at 20 µM: read-out: 3CL-Pro Inhibition [%] Primary Screen (20 µM)

SMILES	inhibition at 20 µM [%]	IC50 [nM]	IC50 (read-out: IC50) [nM]
O=C(O[C@@H]1Cc2c(O)cc(O)cc2O[C@@H]1c1cc(O)c(O)c(O)c1)c1cc(O)c(O)c(O)c1 [compound 6, (-)-3,4,5-Trihydroxybenzoic acid 5,7-dihydroxy-2(R)-(3,4,5-trihydroxyphenyl)-3,4-dihydro-2H-1-benzopyran-3(R)-ylester]	95.3		
CCOc1cc(C(Nc2cc(C)ccn2)c2ccc3cccnc3c2O)ccc1OC (centres unmarked) [compound 63, 7-[(3-Ethoxy-4-methoxyphenyl)[(4-methylpyridin-2-yl)amino]methyl]quinolin-8-ol]	98.9	270	
O=C1C(Cl)=C(Cl)C(=O)C(Cl)=C1Cl [compound 43, 2,3,5,6-tetrachlorocyclohexa-2,5-diene-1,4-dione]	101		20
COc1cccc2c1C(=O)c1c(O)c3c(c(O)c1C2=O)C[C@@](O)(C(CO)=NNC(=O)CCCCCN1C(=O)C=CC1=O)C[C@@H]3O[C@H]1C[C@H](N)[C@H](O)[C@H](C)O1 [compound 72, N'-[1-[4(S)-(3-Amino-2,3,6-trideoxy-alpha-L-lyxo-hexopyranosyloxy)-2(S),5,12-trihydroxy-7-methoxy-6,11-dioxo-1,2,3,4,6,11-hexahydronaphthacen-2-yl]-2-hydroxyethylidene]-6-(2,5-dioxo-2,5-dihydro-1H-pyrrol-1-yl)hexanohydrazide hydrochloride]	101	580	
O=c1cc(-c2ccccc2)oc2cc(O)c(O)c(O)c12 [compound 1, 5,6,7-Trihydroxy-2-phenyl-4H-1-benzopyran-4-one]	97.8		
O=c1sn(-c2cccc3ccccc23)c(=O)n1Cc1ccccc1 [compound 49, 4-Benzyl-2-(1-naphthyl)-1,2,4-thiadiazolidine-3,5-dione]	101		
O=[N+]([O-])c1cnc(Sc2nnc(O)n2-c2ccc3c(c2)OCCO3)s1 [compound 64, 4-(2,3-Dihydro-1,4-benzodioxin-6-yl)-5-(5-nitrothiazol-2-ylsulfanyl)-4H-1,2,4-triazol-3-ol]	96.4		300
Oc1cc2c(cc1C(c1ccc(C(F)(F)F)cc1)N1CCOCC1)OCO2 (centres unmarked) [compound 70, 6-[morpholin-4-yl-[4-(trifluoromethyl)phenyl]methyl]-1,3-benzodioxol-5-ol]	81.4		540
CCCC[C@@H](C=O)NC(=O)[C@H](CC(C)C)NC(=O)OCc1ccccc1 [compound 39, N2-[(Benzyloxy)carbonyl]-N-[(2S)-1-oxohexan-2-yl]-L-leucinamide]	81		
O=C(O)c1ccc(SSc2ccc(C(=O)O)cn2)nc1 [compound 29, 6-[(5-carboxypyridin-2-yl)disulfanyl]pyridine-3-carboxylic acid]	100		240
CCN(CC)C(=S)SSC(=S)N(CC)CC [compound 46, Tetraethylthioperoxydicarbonic diamide]	99.7		
O=C(O)CCCCCCCCCCCCCCc1ccc(I)cc1 [compound 88, 15-(4-iodophenyl)pentadecanoic acid]	95		2250
CN1CCN(C2=C(Cl)C(=O)N(c3ccc(Cl)c(Cl)c3)C2=O)CC1 [compound 16, 3-chloro-1-(3,4-dichlorophenyl)-4-(4-methylpiperazin-1-yl)pyrrole-2,5-dione]	100		
Cc1ccc(S(=O)(=O)C=CC#N)cc1 [compound 17, 3-(4-Methylphenylsulfonyl)-2-propenenitrile]	95.7	820	
CC[C@H](CO)Nc1nc(NCc2ccc(-c3ccccn3)cc2)c2ncn(C(C)C)c2n1 [compound 73, (2R)-2-[[9-propan-2-yl-6-[(4-pyridin-2-ylphenyl)methylamino]purin-2-yl]amino]butan-1-ol]	99.5		840
COc1cccc(C(=O)CCN[C@@H](C)[C@H](O)c2ccccc2)c1 [compound 89, 3-[2(R)-Hydroxy-1(S)-methyl-2-phenylethylamino]-1-(3-methoxyphenyl)propan-1-one hydrochloride]	90.8		2350

SMILES	inhibition at 20 µM [%]	IC50 [nM]	IC50 (read-out: IC50) [nM]
CC(C)(C)c1ccc(S(=O)(=O)/C=C/C#N)cc1 [compound 18, 3-(4-tert-Butylphenylsulfonyl)-2(E)-propenenitrile]	100		840
c1ccc2sc(SNC3CCCCC3)nc2c1 [compound 26, N-(1,3-benzothiazol-2-ylsulfanyl)cyclohexanamine]	70.1		770
CNC(=O)ON(C(C)=O)C(=O)NC [compound 80, N-[(Methylamino)carbonyl]-N-[[(methylamino)carbonyl]oxy]ace tamide]	96.4		1330
On1ccccc1=S [compound 48, 1-hydroxypyridine-2-thione]	101	50	
CCOC(=O)Cc1ccc(-c2ccccc2)cc1 [compound 57, [1,1'-Biphenyl]-4-acetic acid ethyl ester]	96.2		200
Oc1cc2c(cc1O)[C@@H]1c3ccccc3CN[C@H]1CC2 (relative stereo) [compound 77, trans-10,11-Dihydroxy-5,6,6a,7,8,12b-hexahydrobenzo[a]phenanthridine]		1050	
O=C1C(Cl)=C(N2CCOCC2)C(=O)N1c1ccc(Cl)c(Cl)c1 [compound 15, 3-chloro-1-(3,4-dichlorophenyl)-4-morpholin-4-ylpyrrole-2,5-dione]	99.2		1140
O=[N+]([O-])C(Br)(CO)CO [compound 67, 2-bromo-2-nitropropane-1,3-diol]	99.9		420
C=C1C(=O)[C@@]23C(CC[C@@H]1[C@H]2O)[C@@]12CO[C@]3(O)[C@@H](O)[C@@H]1C(C)(C)CC[C@@H]2O (stereo partly drawn) [compound 91, (1S,5S,8R,9S,10S,11R,15S,18R)-9,10,15,18-tetrahydroxy-12,12-dimethyl-6-methylidene-17-oxapentacyclo[7.6.2.15,8.01,11.0 2,8]octadecan-7-one]	98.2		
Nc1ccc(O)c2ncccc12 [compound 34, 5-aminoquinolin-8-ol]	99.3		2050
S=c1[nH]c2ccccc2s1 [compound 24, 3H-1,3-benzothiazole-2-thione]	94		1740
O=C(O)C(S)C(S)C(=O)O (centres unmarked) [compound 82, 2,3-bis(sulfanyl)butanedioic acid]	98.9	1720	
O=C1c2c(O)cc(O)cc2O[C@H](c2cc(O)c(O)c(O)c2)[C@H]1O [compound 2, (+)-3(R),5,7-Trihydroxy-2(R)-(3,4,5-trihydroxyphenyl)-3,4-dihydro-2H-1-benzopyran-4-one]	99.7		
Cc1ccccc1N(C)C(=O)c1ccc([S+]([O-])c2nccs2)c([N+](=O)[O-])c1 (centres unmarked) [compound 84, N-methyl-N-(2-methylphenyl)-3-nitro-4-(1,3-thiazol-2-ylsulfinyl)benzamide]	96.7		1870
O=C1C=CC(=O)C2=C1C1c3ccccc3C2c2ccccc21 [compound 61, Pentacyclo[6.6.6.0(2,7).0(9,14).0(15,20)]icosa-2(7),4,9,11,13,15,17,19-octaene-3,6-dione]	99.2		240
